From patent US20170326125A1, “MULTISUBSTITUTED AROMATIC COMPOUNDS AS INHIBITORS OF THROMBIN” (VERSEON CORPORATION, priority 2016, published 2017)

Biological target: T1, Human thrombin (Homo sapiens, UniProt P00734)
T1 construct: purchased Haematologic Technologies Inc
Assay: Inhibition of the protease activity of thrombin (chromogenic substrate S-2238)
Assay type: biochemical
Conditions: Table C; 3 nM thrombin, 125 μM S-2238, 10 min pre-incubation, RT
Method: Compounds described herein can be assayed, by a variety of methods known in the art and described herein, for inhibition of biological activity, e.g., protease activity, of a variety of proteins, e.g., thrombin.
The thrombin activity reported herein (e.g., Table A) was obtained as follows. Human thrombin was obtained from Haematologic Technologies Inc. The chromogenic
Thrombin was assayed in buffer containing 0.05 M Tris (pH 7.4), 0.015 M NaCl and 0.01% PEG-8000. The final concentration of enzyme used was 3 nM thrombin. […] All assays were performed in 96-well microtiter plates at room temperature (RT). […] Inhibitor IC50 values were determined by adding test compound as ten point, three-fold serial dilutions in buffer solution, as known in the art. The plate was read at 10 minutes after substrate addition. The IC50 was calculated by plotting the percent (%) inhibition against compound concentration and fitting the data to a constrained four parameter sigmoidal curve, as known in the art.

Row | IC50 [nM] | SMILES
1 | 100 to 1000 | COc1ccc(CNc2nc(-c3cccnc3)nn2C(=O)CCc2ccccc2)cc1 [Cmpd 321, 1-(5-[(4-methoxyphenyl)methyl]amino-3-(pyridin-3-yl)-1H-1,2,4-triazol-1-yl)-3-phenylpropan-1-one]
2 | < 100 | O=C(c1ccccc1Cl)n1nc(-c2cccs2)nc1NCc1ccccc1 [Cmpd 409, N-benzyl-1-[(2-chlorophenyl)carbonyl]-3-(thiophen-2-yl)-1H-1,2,4-triazol-5-amine]
3 | > 1000 | CS(=O)(=O)n1nc(-c2ccco2)nc1NCc1cccs1 [Cmpd 369, 3-(furan-2-yl)-1-methanesulfonyl-N-(thiophen-2-ylmethyl)-1H-1,2,4-triazol-5-amine]
4 | > 1000 | O=C(Nc1ccc(Cl)cc1Cl)c1n[nH]c(Cn2cncn2)n1 [Cmpd 390, N-(2,4-dichlorophenyl)-5-(1H-1,2,4-triazol-1-ylmethyl)-4H-1,2,4-triazole-3-carboxamide]
5 | < 100 | Cc1ccc(CNc2nc(-c3cccnc3)nn2C(=O)C(C)C)cc1 [Cmpd 366, 2-methyl-1-(5-[(4-methylphenyl)methyl]amino-3-(pyridin-3-yl)-1H-1,2,4-triazol-1-yl)propan-1-one]
6 | > 1000 | O=C(Nc1n[nH]c(-c2ccco2)n1)c1ccccc1 [Cmpd 407, N-[5-(furan-2-yl)-1H-1,2,4-triazol-3-yl]benzamide]
7 | 100 to 1000 | COc1ccc(CNc2nc(-c3cccnc3)nn2C(=O)c2ccc(C)cc2)cc1 [Cmpd 404, N-[(4-methoxyphenyl)methyl]-1-[(4-methylphenyl)carbonyl]-3-(pyridin-3-yl)-1H-1,2,4-triazol-5-amine]
8 | < 100 | CC(=O)n1nc(-c2cccnc2)nc1NCc1ccc(Cl)cc1 [Cmpd 307, 1-(5-[(4-chlorophenyl)methyl]amino-3-(pyridin-3-yl)-1H-1,2,4-triazol-1-yl)ethan-1-one]

Same assay, conditions: inhibition of the protease activity of thrombin

Row | IC50 [nM] | SMILES
9 | < 100 | COc1ccc(C(=O)n2nc(-c3ccccn3)nc2NCc2ccccc2)c(C)c1 [Cmpd 264, N-benzyl-1-[(4-methoxy-2-methylphenyl)carbonyl]-3-(pyridin-2-yl)-1H-1,2,4-triazol-5-amine]
10 | 100 to 1000 | O=C(c1ccsc1)n1nc(-c2cccs2)nc1NCc1ccccc1 [Cmpd 291, N-benzyl-3-(thiophen-2-yl)-1-[(thiophen-3-yl)carbonyl]-1H-1,2,4-triazol-5-amine]
11 | < 100 | O=C(c1ccsc1)n1nc(-c2ccccc2)nc1NCc1ccc(F)cc1 [Cmpd 222, N-[(4-fluorophenyl)methyl]-3-phenyl-1-[(thiophen-3-yl)carbonyl]-1H-1,2,4-triazol-5-amine]

Same assay, conditions: inhibition of the protease activity of thrombin; class symbols a/b/c

Row | SMILES | IC50 [nM]
12 | CC(C)(C)C(=O)Nc1nc(C(=O)N2CCOCC2)n[nH]1 [Cmpd 169, 2,2-dimethyl-N-3-[(morpholin-4-yl)carbonyl]-1H-1,2,4-triazol-5-ylpropanamide] | > 1000
13 | O=C(O)c1cc(-c2ccccn2)nn1CCc1ccc(F)cc1 [Cmpd 52] | > 1000
14 | O=C(Oc1ccccc1F)n1nc(-c2cccnc2)nc1NCc1ccc(F)cc1 [Cmpd 173, 2-fluorophenyl 5-[(4-fluorophenyl)methyl]amino-3-(pyridin-3-yl)-1H-1,2,4-triazole-1-carboxylate] | > 1000
15 | O=C(c1ccccc1Cl)n1nc(-c2cccs2)nc1NCc1ccc(F)cc1 [Cmpd 113, 1-[(2-chlorophenyl)carbonyl]-N-[(4-fluorophenyl)methyl]-3-(thiophen-2-yl)-1H-1,2,4-triazol-5-amine] | < 100
16 | O=C(c1ccccc1)n1nc(-c2ccccn2)nc1NCc1ccccc1 [Cmpd 159, 1-benzoyl-N-benzyl-3-(pyridin-2-yl)-1H-1,2,4-triazol-5-amine] | < 100

Further lines, results first:

Row | IC50 [nM] | SMILES
17 | < 100 | CSc1nc(-c2cccnc2)nn1C(=O)c1ccccc1Cl [Cmpd 180, 3-1-[(2-chlorophenyl)carbonyl]-5-(methylsulfanyl)-1H-1,2,4-triazol-3-ylpyridine]
18 | > 1000 | CC(O)c1cc(-c2ccccn2)nn1CCc1ccc(F)cc1 (stereo not drawn) [Cmpd 163, 1-1-[2-(4-fluorophenyl)ethyl]-3-(pyridin-2-yl)-1H-pyrazol-5-ylethan-1-ol]
